Assay results published in ChEMBL document CHEMBL1201862, “PubChem BioAssay data set” (2004).
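A five-concentration, 48-hour dose response in 96-well plates underlies each endpoint, interpolated linearly between surrounding concentrations. GI50 is the concentration that inhibits growth by half.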 Calls of active or inactive are those of the source. No stated cut-off is given here; in the data, active = GI50 up to about 1.1 µM and inactive = higher. Peptide text beside a SMILES is read from it. * marks the point of attachment. Boc = CC(C)(C)OC(=O)*

What was measured:
Assay in all cases: NCI-60 cell line screen, 48 h
UACC-257 = tested on: UACC-257
CAKI-1 = tested on: CAKI-1
HCT-116 = tested on: HCT-116
DU-145 = tested on: DU-145
OVCAR-8 = tested on: OVCAR-8
TK-10 = tested on: TK-10
SK-OV-3 = tested on: SK-OV-3
MCF7 = tested on: MCF7
KM12 = tested on: KM12
HOP-92 = tested on: HOP-92
SK-MEL-2 = tested on: SK-MEL-2
SF-268 = tested on: SF-268
LOX IMVI = tested on: LOX IMVI
SR = tested on: SR
MDA-MB-435 = tested on: MDA-MB-435
SK-MEL-5 = tested on: SK-MEL-5
Hs-578T = tested on: Hs-578T
SF-539 = tested on: SF-539
A498 = tested on: A498
SNB-75 = tested on: SNB-75

Compound	GI50 (UACC-257)	GI50 (CAKI-1)	GI50 (HCT-116)	GI50 (DU-145)	GI50 (OVCAR-8)	GI50 (TK-10)	GI50 (SK-OV-3)	GI50 (MCF7)	GI50 (KM12)	GI50 (HOP-92)	GI50 (SK-MEL-2)	GI50 (SF-268)	GI50 (LOX IMVI)	GI50 (SR)	GI50 (MDA-MB-435)	GI50 (SK-MEL-5)	GI50 (Hs-578T)	GI50 (SF-539)	GI50 (A498)	GI50 (SNB-75)
COc1cc2c(cc1OC)C(=O)/C(=C/c1ccc(O)cc1)CC2	> 10 µM (inactive)	5.82 µM (inactive)	> 10 µM (inactive)	> 10 µM (inactive)	> 10 µM (inactive)	> 10 µM (inactive)	> 10 µM (inactive)	> 10 µM (inactive)	> 10 µM (inactive)	> 10 µM (inactive)	> 10 µM (inactive)	> 10 µM (inactive)	> 10 µM (inactive)	> 10 µM (inactive)	> 10 µM (inactive)	> 10 µM (inactive)	> 10 µM (inactive)	> 10 µM (inactive)		
CCOCC(NC(=O)C(CC(C)C)NC(=O)OC(C)(C)C)C(N)=O (stereo not drawn) (Boc-Leu-Ser(Et)-NH2; configuration not given here)	> 100 µM (inactive)	> 100 µM (inactive)	> 100 µM (inactive)	> 100 µM (inactive)	> 100 µM (inactive)	> 100 µM (inactive)	> 100 µM (inactive)	> 100 µM (inactive)	> 100 µM (inactive)	> 100 µM (inactive)	> 100 µM (inactive)	> 100 µM (inactive)	> 100 µM (inactive)		> 100 µM (inactive)	> 100 µM (inactive)	> 100 µM (inactive)	> 100 µM (inactive)	> 100 µM (inactive)	0.11 µM (active)
COc1ccc(C2C(C#N)=C(S)N(C3OC(COC(C)=O)C(OC(C)=O)C(OC(C)=O)C3OC(C)=O)C(c3ccccc3)=C2C(C)=O)cc1 (configuration not stated)	> 100 µM (inactive)	> 100 µM (inactive)	> 100 µM (inactive)	> 100 µM (inactive)	> 100 µM (inactive)	> 100 µM (inactive)		63 µM (inactive)	> 100 µM (inactive)	> 100 µM (inactive)	> 100 µM (inactive)	> 100 µM (inactive)	> 100 µM (inactive)		33.6 µM (inactive)	53.7 µM (inactive)	70.8 µM (inactive)	76.7 µM (inactive)	> 100 µM (inactive)	18.7 µM (inactive)
[N-]=[N+]=C(C(=O)CN1CCCC1=O)S(=O)(=O)c1ccccc1	> 100 µM (inactive)		> 100 µM (inactive)	> 100 µM (inactive)	> 100 µM (inactive)	> 100 µM (inactive)		> 100 µM (inactive)	> 100 µM (inactive)		> 100 µM (inactive)	> 100 µM (inactive)	> 100 µM (inactive)	> 100 µM (inactive)	> 100 µM (inactive)	> 100 µM (inactive)	> 100 µM (inactive)	> 100 µM (inactive)		> 100 µM (inactive)
S=C1Cc2c([nH]c3ccccc23)-c2ccccc2N1	55 µM (inactive)	23.3 µM (inactive)	25.1 µM (inactive)	41.3 µM (inactive)	38.3 µM (inactive)	21.5 µM (inactive)	24.2 µM (inactive)	> 100 µM (inactive)	> 100 µM (inactive)	32.3 µM (inactive)		34.4 µM (inactive)	75.2 µM (inactive)	42 µM (inactive)	> 100 µM (inactive)	42 µM (inactive)	61 µM (inactive)	43.6 µM (inactive)		26.2 µM (inactive)
CC(=O)Nc1c(C)cc2c(nc3n2CCC3O)c1[N+](=O)[O-] (configuration not stated)	> 100 µM (inactive)	> 100 µM (inactive)	> 100 µM (inactive)	> 100 µM (inactive)	> 100 µM (inactive)		> 100 µM (inactive)	> 100 µM (inactive)	> 100 µM (inactive)	> 100 µM (inactive)	> 100 µM (inactive)	> 100 µM (inactive)	> 100 µM (inactive)		> 100 µM (inactive)	> 100 µM (inactive)	> 100 µM (inactive)	> 100 µM (inactive)	> 100 µM (inactive)	> 100 µM (inactive)
CCC(=O)N1NC(=O)C(CC)(CC)C1=O	> 100 µM (inactive)	> 100 µM (inactive)	> 100 µM (inactive)	> 100 µM (inactive)	> 100 µM (inactive)	> 100 µM (inactive)	> 100 µM (inactive)	> 100 µM (inactive)	> 100 µM (inactive)		> 100 µM (inactive)	> 100 µM (inactive)	> 100 µM (inactive)	> 100 µM (inactive)	> 100 µM (inactive)	> 100 µM (inactive)	83 µM (inactive)			36.8 µM (inactive)
Cc1oc2c(c1C)S(=O)(=O)C(C#N)C(c1ccccc1)N2 (configuration not stated)	56.6 µM (inactive)	36.1 µM (inactive)	50 µM (inactive)	80.7 µM (inactive)	40.4 µM (inactive)	> 100 µM (inactive)	86.5 µM (inactive)	51.5 µM (inactive)	50.4 µM (inactive)	64.6 µM (inactive)	61.8 µM (inactive)	56 µM (inactive)	43.8 µM (inactive)		34.5 µM (inactive)	32.4 µM (inactive)	30.9 µM (inactive)	39.6 µM (inactive)	> 100 µM (inactive)	40.2 µM (inactive)
COc1ccc(N[S+]([O-])c2ccccc2OC)cc1 (configuration not stated)	33.7 µM (inactive)	25.8 µM (inactive)	13.9 µM (inactive)	27.5 µM (inactive)	23.7 µM (inactive)	> 100 µM (inactive)		20.2 µM (inactive)	4.98 µM (inactive)		11.8 µM (inactive)	7.28 µM (inactive)	10.3 µM (inactive)	11.9 µM (inactive)	7.53 µM (inactive)	11.2 µM (inactive)	21.7 µM (inactive)	18.2 µM (inactive)		
COc1cc(OC)c(OC)cc1/C=C/c1cnnc2ccccc12	> 10 µM (inactive)	> 10 µM (inactive)	> 10 µM (inactive)	> 10 µM (inactive)	> 10 µM (inactive)	> 10 µM (inactive)	> 10 µM (inactive)	1.68 µM (inactive)	> 10 µM (inactive)	> 10 µM (inactive)	> 10 µM (inactive)	> 10 µM (inactive)	6.9 µM (inactive)		1.84 µM (inactive)	> 10 µM (inactive)	> 10 µM (inactive)	> 10 µM (inactive)	> 10 µM (inactive)	2.85 µM (inactive)
O=c1ccc(=O)n(-c2ccccc2)[nH]1	> 100 µM (inactive)	> 100 µM (inactive)	> 100 µM (inactive)	> 100 µM (inactive)	> 100 µM (inactive)	> 100 µM (inactive)	> 100 µM (inactive)	> 100 µM (inactive)	> 100 µM (inactive)	> 100 µM (inactive)	> 100 µM (inactive)	> 100 µM (inactive)	> 100 µM (inactive)		> 100 µM (inactive)	> 100 µM (inactive)	> 100 µM (inactive)	> 100 µM (inactive)	> 100 µM (inactive)	> 100 µM (inactive)
